Source: US20080318910A1, “Controlled-Release Oral Dosage Form” (MISTRAL PHARMA, INC., priority 2005, published 2008)
Values after ≈ are worked out from the molar mass of the structure shown.

Test: physchem

| Structure (SMILES) | solubility (pH 2, simulated gastric fluid) | solubility (pH 5.5, aqueous buffer) | solubility (aqueous buffer, solubility, pH higher than 4.8) | solubility (aqueous buffer, solubility, pH lower than 4.8) |
| --- | --- | --- | --- | --- |
| CCC(COC(=O)c1cc(OC)c(OC)c(OC)c1)(c1ccccc1)N(C)C (stereo not shown) [Trimebutine] | ~11000 µg/mL (≈ 28.4 mM) | 1000 µg/mL (≈ 2.58 mM) |  |  |
| C/C=C/C=C/C(=O)O [Sorbic acid] |  |  | ~333000 µg/mL (≈ 2970 mM) | ~2500 µg/mL (≈ 22.3 mM) |
